Data published in a melting point compilation (Tetko et al.).

| Compound | melting point [°C] |
| --- | --- |
| Clc1cc2c(cc1Cl)Oc1cc(Br)c(Br)cc1O2 | 316 |
| O=C(c1ccccc1)c1nn2c(C(F)(F)F)nnc2s1 | 157 |
| CC12CCC(O)CC1CCC1C2CCC2(C)C1CCC21OCCO1 (stereo not given) | 151 |
| CSc1cnccn1 | 44 to 47 |
| Fc1cc(F)c(F)c(-c2c(F)c(F)cc(F)c2F)c1F | 85 |
| CCOC(=O)CSc1nc(C)n[nH]1 | 99 to 101 |
| CC(=O)OC1CCC2(C)C(CCC3(C)C2C(=O)C=C2C4CC(C)(C(=O)O)CCC4(C)CCC23C)C1(C)C (stereo not given) | 323 |
| CSc1nnc(C(C)(C)C)c(=O)n1N=CC(C)C | 159 |
| N#CCCP(CCC#N)CCC#N | 98 |
| COc1ccc(-n2c(=S)[nH]c3ccccc3c2=O)cc1 | 307 to 310 |
| CCCCCCCCCCCC(C)CC (stereo not given) | -32 |
| CC(C)(C)P(c1ccc2ccccc2c1-c1cccc2ccccc12)C(C)(C)C | 147 to 149 |
| CC(C)(C)c1cc(C(=S)NC2CCCCC2)cc(C(C)(C)C)c1O | 217 to 218 |
| CC(=O)OC(OC(C)=O)c1ccc2c(c1)C(=O)c1c(Cl)c(Cl)c(Cl)c(Cl)c1C2=O | 172 |
| CSCC[C@@H](NC(=O)OC(C)(C)C)C(=O)O | 47 to 50 |
| CCOC(=O)Nc1c([N+](=O)[O-])cc(Cl)cc1[N+](=O)[O-] | 167 |
| O=C(O)c1ccc([N+](=O)[O-])cc1F | 174 |
| CN(C)c1ccc(/C=C(\C#N)c2nc(-c3cccc4ccccc34)cs2)cc1 | 128 |
| O=C(O)c1ccc(C(F)(F)F)nc1Cl | 120 to 122 |
| CC1(C)C=Cc2c(ccc3c2OC2c4ccc(O)cc4OCC32)O1 (stereo not given) | 178 |
| CCOC(=O)c1c(SC)n[nH]c1N | 142 to 143 |
| Nc1cc(Cl)cc(C(=O)O)c1Cl | 200 |
| Cc1nc2ccc(I)cc2s1 | 134 to 137 |
| Cn1nc([N+](=O)[O-])c2c(=O)cc[nH]c21 | 222 to 224 |

| Compound | melting point [°C] |
| --- | --- |
| O=Cc1cc([N+](=O)[O-])ccc1N1CCOCC1 | 115 |
| CCCCCOC(=O)CCCCC | -47 |
| O=C(O)c1coc2ccccc2c1=O | 201 |
| CC12CCC3C(CCC4CC(=NO)CCC43C)C1CCC2O (stereo not given) | 198 to 199 |
| ClCC(Cl)(Cl)C(Cl)(Cl)Cl | 26 |
| O=C(CCC1=NC=NC1)NCCc1c[nH]cn1 | 164 |
| O=[N+]([O-])c1ccc(NN=C(Cc2ccccc2)C(Cc2ccccc2)=NNc2ccc([N+](=O)[O-])cc2)cc1 | 276 |
| OCc1scc2c1OCCO2 | 68 to 69 |
| CC(=O)CCCCC(=O)O | 35 |
| N#CC(=Cc1cccc(O)c1)C(=O)O | 230 to 233 |
| CON(C(=O)c1cc(C)oc1C)C1CCCCC1 | 33 |
| COc1ccc(C)cc1N | 53 |
| C=CC(=O)NC(C)C | 64 |
| CC1(C)CCCC(C)(C)N1 | 28 |
| N#CCc1cccc(C(F)(F)F)c1Cl | 57.5 |
| Cc1c(-c2ccccc2)oc(-c2ccccc2)c(C)c1=O | 144 |
| CCCCCCCCCC(=O)CCC | 19 |
| Oc1ccc(C(O)(c2ccccc2)c2ccc(O)c3ccccc23)c2ccccc12 | 232 |
| Cc1c(C#N)c(N)n(Cc2c(Cl)cccc2Cl)c1C | 194 to 196 |
| c1cc2ccc3cccc4ccc(c1)c2c34 | 153 |
| C#CC1(O)CCC2(C)C(CCC3C2CCC2(C)C3CCC23OCCO3)C1 (stereo not given) | 203 to 209 |
| C=C1C(=O)C23C(OC(C)=O)CC4C5(C)CCCC4(C(O)OC5)C2C(OC(C)=O)CC1C3OC(C)=O (stereo not given) | 226 |
| Nc1nn2c(-c3ccccc3)cc(=O)[nH]c2c1/N=N/c1ccccc1 | 265 |
| C1CCC(C(C2CCCCC2)C2CCCCC2)CC1 | 48 |

| Compound | melting point [°C] |
| --- | --- |
| Nc1cc2c(cc1C=Cc1ccccc1)CC(c1ccccc1)N2 (stereo not given) | 163 |
| O=C(Nc1nc(-c2ccccc2)cs1)c1ccccc1 | 123 |
| O=C(c1ccccc1)c1ccccc1N=Nc1ccccc1C(=O)c1ccccc1 | 205 |
| CC(C)CCCC(C)C1CCC2C3CC(=O)C4(O)CC(=O)CCC4(C)C3CCC12C (stereo not given) | 222 |
| O=C(O)C(Br)=C(Br)C(=O)O | 119 to 125 |
| NC(=O)/C(=N\Nc1ccc(O)cc1)c1nc2ccccc2s1 | 160 |
| O=C(O)c1cc(F)ccc1O | 179 to 182 |
| CC(C)(C)C(O)C(C)(C)C | 50 |
| CC1=CC(=O)c2c(O)cccc2C1=O | 78.5 |
| S=C(Nc1ccccc1)C(=S)Nc1ccccc1 | 134 to 135 |
| CC1C=CC(C2CC(=O)OC2=O)C12CC2 (stereo not given) | 98 |
| CCC(CC)C(N)CC(=O)O (stereo not given) | 213 to 214 |
| CN(C)C(C)(C)C | -90 |
| N#CC1=C(N)Oc2c(c(C(F)(F)F)nn2-c2ccccc2)C1c1ccc(Cl)cc1Cl (stereo not given) | 210 |
| O=C1NC2=Cc3ccccc3C2(O)Cc2ccccc21 (stereo not given) | 209 |
| COC(=O)NC1C(O)OC(CO)C(O)C1O (stereo not given) | 196 |
| CCC(COC(=O)c1cc(OC)c(OC)c(OC)c1)(c1ccccc1)N(C)C (stereo not given) | 79 |
| O=C1NC(=O)C2CC(c3ccccc3)CCC12 (stereo not given) | 134 to 136 |
| CC(=O)SCC(C)C(=O)O (stereo not given) | 5 |
| Cc1cc2c(c(=O)n1Cc1ccccc1)C(c1ccccc1)C(C#N)=C(N)O2 (stereo not given) | 275 to 277 |
| O=C1CCSCC1 | 62 to 65 |
| CCc1cn(C2CC(O)C(CO)O2)c(=O)[nH]c1=O (stereo not given) | 152 |
| Nc1ncnc2c1ncn2CC(O)CO (stereo not given) | 202 to 203 |

Other lines, results leading:

| melting point [°C] | Compound |
| --- | --- |
| 111 to 113 | COc1ccc(N=C=S)c([N+](=O)[O-])c1 |
| 134 | ON=Cc1cccc2c(Br)cccc12 |
| 133 to 134 | O=S(=O)(Cl)c1ccc(S(=O)(=O)N2CCCC2)cc1 |
| 59 | Oc1ccc(SC(F)(F)F)cc1 |
| 140 to 142 | COc1cccc2onc(N)c12 |
| 104 | O=S(=O)(Cl)c1ccc(S(=O)(=O)c2ccccc2)s1 |
| 163 to 165 | COc1ccc(C(c2c(O)cc(C)oc2=O)c2c(O)cc(C)oc2=O)cc1 |
| 56 to 57 | BrCCOc1ccc(Br)cc1 |
| 104 to 109 | O=Cc1cccc(O)c1O |
| -32.5 | Cc1ccc(Cl)c(C)c1 |
| 119 | O=C(Cl)c1ccc2nccnc2c1 |
| 125 to 128 | NC(=NO)c1ccc(C(F)(F)F)cc1 |
| 114 to 116 | O=[N+]([O-])c1ccc(S(=O)(=O)Oc2ccccc2)cc1 |
| 122 | CC(=O)CCc1ccc(CCC(C)NC(=O)c2ccccc2)cc1 (stereo not given) |
| 85 | Cc1ccc2oc(CCC(C)(O)c3ccccc3)c(-c3ccc(C)o3)c2c1 (stereo not given) |
| 150 | CC1=C(C(=O)OCc2ccccc2)C(c2ccc3ccccc3c2)NC(=O)N1C (stereo not given) |
| 130 to 132 | N#Cc1cc(Cl)ccc1Cl |
| 228 | N#Cc1cnc2[nH]ccc2c1 |
| 130 to 132 | COc1cc2c(cc1OC)C(c1ccc(Cl)cc1)N(C(C)=O)CC2 (stereo not given) |
| 118 | O=C1c2ccccc2C(=O)N1CC#CCCl |
| 53 | CCN(CC)C(C)CN1c2ccccc2Sc2ccccc21 (stereo not given) |
| 173 to 175 | Cc1ccc(Cc2c(N)n[nH]c2N)cc1 |
| 115 | Brc1ccc(Sc2ccc(Br)cc2)cc1 |
| 143 to 148 | N#Cc1ccc(O)c([N+](=O)[O-])c1 |
| 163 to 168 | Oc1ccc(Oc2ccc(O)cc2)cc1 |
| 119 | O=C1NN(c2ccccc2)C(=O)C1(Br)Br |
| 132 | CC(=O)C(=NNc1ccc(Br)cc1)C(C)=O |

| melting point [°C] | Compound |
| --- | --- |
| 248 to 252 | CCOC(=O)c1c(Nc2ccc(OC)cc2)sc2c(-c3ccccc3)c3c(N)n[nH]c3nc12 |
| 49 to 50 | O=C(CBr)c1ccc(Oc2ccccc2)cc1 |
| 128 to 132 | Cc1ccc(C)c(CC(=O)O)c1 |
| 83 | Cc1ccc2sc(S(=O)(=O)Cl)cc2c1 |
| 171 to 172 | NNC(=S)Nc1ccc(F)cc1 |
| 253 to 256 | O=CNc1ccc(C2=NNC(=O)CC2)cc1 |
| 140 to 143 | NNC(=O)c1ccccc1-c1ccccc1 |
| 56 | O=Cc1cccc(OCc2ccccc2)c1 |
| 104 to 105 | COc1cccc2cc(C(=O)C3CC(C)(c4ccccc4)C3)oc12 (stereo not given) |
| 114 to 116 | CC(C)(O)CCc1ccccc1O |
| 42 to 46 | CCOC(=O)C1CCN(Cc2cccc(N)c2)CC1 |
| 130 | O=C1OS(=O)(=O)c2ccccc21 |
| 115 to 117 | O=C(Nc1cccnc1Cl)c1ccccc1Cl |
| 81 | COC(=O)c1sc2ccccc2c1Cl |
| 199 to 202 | NNC(=O)c1cncc(Br)c1 |
| 190 to 192 | Nc1ccc(Cl)cc1C(=O)c1cccc(O)c1 |
| 144 | CCCCOc1ccc(-c2nnc3n2NC(c2ccc(O)c(OC)c2)S3)cc1 (stereo not given) |
| 64 | CC(Oc1ccc(Oc2cnc3cc(Cl)ccc3n2)cc1)C(=O)OCC1CCCO1 (stereo not given) |
| 116 | COc1ccc(CCc2cc(OC)c3ccccc3n2)cc1OC |
| 177 to 179 | S=c1[nH]ccn1-c1ccccc1 |
| 248 | Nc1ccc(S(=O)(=O)Nc2cnc3ccccc3n2)cc1 |
| 222 | Cc1ccc(Cn2ncc3c(N)ncnc32)cc1 |
| 177 to 185 | ON=C(O)c1ccccc1O |
| 72 | CCOc1cc(C(=S)N2CCCCC2)ccc1OCc1ccccc1 |
| 40 | CC(C)(C)c1ccc(C(=O)c2ccccc2)cc1 |
| 121 | COc1ccc(C(CCC(=O)O)C(C)(C)C(=O)O)cc1 (stereo not given) |
| 119 | Cc1ccc(C(C)(C)C(=O)ON)cc1 |
